Measured values from publication PMC10281575, “PfCRT mutations conferring piperaquine resistance in falciparum malaria shape the kinetics of quinoline drug binding and transport” (PLOS Pathogens, 2023).
Values joined by “and” are separate entries in the source; they are usually repeats but may differ in a detail not shown here. Equal entries are not always repeated.

Target: T1, PfCRT^Dd2_M343L (Plasmodium falciparum, UniProt Q8IBZ9, A220S/I356T/K76T/M343L/M74I/N326S/N75E/Q271E/R371I)
T1 construct: expressed in transfected cells; host or cells: Xenopus laevis oocytes injected with in vitro transcribed RNA (pSP64T)
T1 sequence (Q8IBZ9 1-424 M74I/N75E/K76T/A220S/Q271E/N326S/M343L/I356T/R371I): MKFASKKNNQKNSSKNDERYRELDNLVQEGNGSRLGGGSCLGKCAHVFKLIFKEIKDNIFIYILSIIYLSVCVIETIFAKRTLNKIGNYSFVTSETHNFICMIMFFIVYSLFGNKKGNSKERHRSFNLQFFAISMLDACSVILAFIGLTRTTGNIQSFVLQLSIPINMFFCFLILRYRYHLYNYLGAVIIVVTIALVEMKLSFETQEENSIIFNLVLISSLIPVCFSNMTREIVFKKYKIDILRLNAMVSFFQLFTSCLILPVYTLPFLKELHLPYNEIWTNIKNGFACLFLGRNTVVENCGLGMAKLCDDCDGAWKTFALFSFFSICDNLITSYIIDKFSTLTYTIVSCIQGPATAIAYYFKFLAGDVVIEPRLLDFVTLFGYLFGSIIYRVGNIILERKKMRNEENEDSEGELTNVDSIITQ
Test: Radiolabeled drug uptake in X. laevis oocytes expressing PfCRT^Dd2_M343L
Assay type: cell-based
Source text: A codon-optimized coding sequence of the Dd2 isoform of PfCRT (PfCRT^Dd2) was subcloned into the pSP64T expression vector [21]. To generate the necessary mutations to introduce the amino acid substitutions H97Y, F145I, M343L or G353V into the pfcrt sequence, the overlap extension method was used. A region from the 5’-untranslated Xenopus β-globin sequence to the respective 3’ region, containing the full length pfcrt coding sequence, was amplified using the following primer pairs: for the H97Y mutation, numbers 1/4 and 2/3; for the F145I mutation, numbers 1/6 and 2/5; for the M343L mutation, numbers 1/8 and 2/7; and for the G353V mutation, numbers 1/10 and 2/9 (for primers, see S2 Table). Both PCR products were used as template for amplification of the final product using primers number 1/2. The resulting fragment was cloned into the pSP64T expression vector, and the presence of the desired mutation was confirmed by sequencing.
Adult female X. laevis frogs (purchased from NASCO) were anesthetized by submersion in a solution of 0.3% (w/v) 3-amino benzoate methanesulfonate for 15 min. Sections of the ovary were surgically removed and placed in Ca^2+-free ND96 buffer supplemented with 0.1% collagenase D (w/v; Roche), 0.5% BSA (w/v) and 9 mM Na2HPO4 at 18°C for 14–16 h while gently shaking. The oocytes were then washed several times with ND96 buffer (5 mM HEPES, pH 7.5, 96 mM NaCl, 2 mM KCl, 1.8 mM CaCl2, 1 mM MgCl2), supplemented with […] gentamycin. Healthy-looking stage V-VI oocytes were manually selected and randomly grouped for injection. A codon-optimized coding sequence of PfCRT was subcloned into the pSP64T expression vector and subsequently linearized using the restriction endonuclease BamHI or SalI (New England Biolabs GmbH). RNA for injection was transcribed in vitro using the mMESSAGE mMACHINE SP6 Transcription kit (Ambion), diluted with nuclease-free water to a final concentration of 0.6 μg/μL and stored at -80°C. RNA was injected using precision-bore glass capillary tubes (3.5-inch glass capillaries; Drummond Scientific Co.), which were pulled on a vertical puller (P-87 Flaming/Brown micropipette puller, Sutter Instrument Co.) and graduated. The micropipettes were connected to a microinjector (Nanoject II Auto-Nanoliter Injector, Drummond Scientific Co.). Injection was conducted under stereomicroscopic control. 50 nL of nuclease-free water alone (control oocytes) or 50 nL of nuclease-free water containing 30 ng of RNA was injected per oocyte. Injected oocytes were kept for 72 h at 18°C in ND96 buffer with two daily buffer changes before being used for further experiments.
Drug transport assays were performed as previously described. Briefly, measurements of radiolabeled drug uptake were made over 1 h, unless otherwise specified. […] Where specified, one or more unlabeled drugs were also present at the indicated concentrations. […] The uptake assays were terminated by removing the oocytes from the reaction medium and washing them three times with 2 mL of ice-cold ND96 buffer. Each oocyte was transferred to a separate scintillation vial and lysed by the addition of 200 μL of a 5% SDS solution. The radioactivity in the sample was measured using a liquid scintillation analyser Tri-Carb 4910 TR (PerkinElmer). Water-injected oocytes were analyzed in parallel as a negative control. The buffer from each condition was measured in duplicate in parallel to each experiment to transform counts per minute into pmol of drug. Drug uptake attributable to PfCRT was determined by subtracting the background uptake from water-injected oocytes from that of PfCRT-expressing oocytes. In all cases, at least three independent experiments were performed on oocytes from different frogs, and for each condition in an experiment, measurements were made from 10 oocytes per treatment.

SMILES: Clc1ccc2c(N3CCN(CCCN4CCN(c5ccnc6cc(Cl)ccc56)CC4)CC3)ccnc2c1 [PPQ, piperaquine]
- PfCRTDd2_M343L-mediated PPQ uptake at 10 µM PPQ (10 µM PPQ, single replicates): 13.08 pmol oocyte-1 h-1 and 6.84 pmol oocyte-1 h-1 and 2.69 pmol oocyte-1 h-1
- PfCRTDd2_M343L-mediated PPQ uptake at 50 µM PPQ (50 µM PPQ, single replicates): 84.22 pmol oocyte-1 h-1 and 103.15 pmol oocyte-1 h-1 and 60.92 pmol oocyte-1 h-1 and 65.48 pmol oocyte-1 h-1 and 62.52 pmol oocyte-1 h-1 and 18.03 pmol oocyte-1 h-1
- PfCRTDd2_M343L-mediated PPQ uptake at 100 µM PPQ (100 µM PPQ, single replicates): 130.36 pmol oocyte-1 h-1 and 98.93 pmol oocyte-1 h-1 and 50.24 pmol oocyte-1 h-1
- PfCRTDd2_M343L-mediated PPQ uptake at 300 µM PPQ (300 µM PPQ, single replicates): 154.89 pmol oocyte-1 h-1 and 102.01 pmol oocyte-1 h-1 and 116.02 pmol oocyte-1 h-1
- PfCRTDd2_M343L-mediated PPQ uptake at 500 µM PPQ (500 µM PPQ, single replicates): 164.14 pmol oocyte-1 h-1 and 130.73 pmol oocyte-1 h-1 and 130.95 pmol oocyte-1 h-1
- Km (Michaelis-Menten fit, 10-500 μM drug, pH 6, read-out: KM, Michaelis constant): 80 ± 16 µM

SMILES: CCN(CC)CCCC(C)Nc1ccnc2cc(Cl)ccc12 (stereo not drawn) [CQ, chloroquine]
- PfCRTDd2_M343L-mediated CQ uptake at 10 µM CQ (10 µM CQ, single replicates): 1.16 pmol oocyte-1 h-1 and 0.62 pmol oocyte-1 h-1 and 0.22 pmol oocyte-1 h-1
- PfCRTDd2_M343L-mediated CQ uptake at 50 µM CQ (50 µM CQ, single replicates): 2.13 pmol oocyte-1 h-1 and 3.20 pmol oocyte-1 h-1 and 2.38 pmol oocyte-1 h-1 and 2.37 pmol oocyte-1 h-1
- PfCRTDd2_M343L-mediated CQ uptake at 100 µM CQ (100 µM CQ, single replicates): 5.08 pmol oocyte-1 h-1 and 4.43 pmol oocyte-1 h-1 and 5.13 pmol oocyte-1 h-1
- PfCRTDd2_M343L-mediated CQ uptake at 300 µM CQ (300 µM CQ, single replicates): 10.45 pmol oocyte-1 h-1 and 11.10 pmol oocyte-1 h-1 and 13.47 pmol oocyte-1 h-1
- PfCRTDd2_M343L-mediated CQ uptake at 500 µM CQ (500 µM CQ, single replicates): 14.93 pmol oocyte-1 h-1 and 14.77 pmol oocyte-1 h-1 and 15.77 pmol oocyte-1 h-1
- Vmax, maximal velocity of drug transport (Michaelis-Menten fit, 10-500 μM drug, pH 6): 31 ± 2 pmol oocyte^-1 h^-1
